# Columns and labels:
# hiPSC-CMs = experiment: xCELLigence RTCA Cardio impedance assay on hiPSC-CMs; format: cell-based, human; settings: for CI (concentration at which cell index is decreased, ↓): arrow ↓ = CI decreased
# Experimental: (§1) Human ESC-CMs were kindly provided by the Institute of Biophysics of the Chinese Academy of Sciences, Beijing, China. Human iPSC-CMs, provided by a domestic manufacturer (Cellapy: CA2001106, Beijing, China), were also examined. Cells were incubated in maintaining medium at 37 °C, 5% CO2, with culture medium refreshed every 2 days. Cells were dissociated and replated into 96-well E-plates (ACEA Biosciences, Hangzhou, China), which was pre-coated with 0.1% gelatin. Cells were plated at a density of 50,000 cells per well.
# (§2) Spontaneous cardiomyocytes contraction and cell health were monitored in real-time by impedance using xCELLigence real-time cellular analyzer (RTCA) Cardio system (ACEA Biosciences, Hangzhou, China). Impedance signals were monitored and recorded with 20 s recording per sweep.
# (§3) Drug dilutions were equilibrated in a 37 °C, 5% CO2 incubator for 30 min before being applied to E-plates.
# (§4) For data analysis, cellular impedance index, beat rate, and amplitude were measured off-line using RTCA Cardio software 1.0 and normalized for each well to the baseline (pre-dose) values measured prior to the compounds treatment. Statistics were performed using SPSS 21.0 (IBM Corp., Armonk, NY, USA). Data were presented as mean ± SEM. Statistical significance of differences was estimated by one-way ANOVA or Student’s t test. p < 0.05 was considered significant.
# hESC-CMs = experiment: xCELLigence RTCA Cardio impedance assay on hESC-CMs; format: cell-based, human; settings: for CI (concentration at which cell index is decreased, ↓): arrow ↓ = CI decreased, NO = no effect
# Experimental: as §1, §2, §3, §4
# [1] = hiPSC-CMs, concentration-dependent
# [2] = hiPSC-CMs, concentration-dependent effect, impedance
# [3] = concentration-dependent effect, impedance
structure (smiles),measurement,setting,value
"O=C(CCCN1CCC(O)(c2ccc(Cl)cc2)CC1)c1ccc(F)cc1 [Haloperidol, haloperidol]",spontaneous beating rate,"hiPSC-CMs; hPSC-CMs, 0.1 μmol/L",Mild reduction
same,time post administration at which beating rate recovered,"hiPSC-CMs; hPSC-CMs, 0.1 μmol/L",18 h
same,beating rate,"hiPSC-CMs; hPSC-CMs, 1 μmol/L, after 0.5 h",significantly reduced
same,time at which cellular automaticity ceased,"hiPSC-CMs; hPSC-CMs, 10 μmol/L",0.5 h
same,time at which self-recovery was observed,"hiPSC-CMs; hPSC-CMs, 10 μmol/L",24 h
same,amplitude compared with controls,"hiPSC-CMs; hPSC-CMs, 10 μmol/L, after self-recovery at 24 h",significantly decreased
same,"CI (concentration at which cell index is decreased, ↓)",hiPSC-CMs; hiPSC-CMs,10↓ μmol•L^-1
same,effect on CI and pulse signals,hiPSC-CMs; [1],reduced
same,IC50/EC50 (IC50),hiPSC-CMs; [2],5170 nM
same,beating rate,"hESC-CMs; 0.01 μmol/L, 6 h post administration",mild reduction
same,spontaneous beating rate and amplitudes,hESC-CMs; 0.1 μmol/L,significantly reduced
same,time at which cellular automaticity ceased,hESC-CMs; 1 μmol/L,0.5 h
same,time post administration at which partial recovery was observed,hESC-CMs; 1 μmol/L,24 h
same,self-recovery after abolished spontaneous beating,"hESC-CMs; 10 μmol/L, investigation period",no self-recovery
same,effect on CI and pulse signals,hESC-CMs; concentration-dependent,reduced
same,IC50/EC50 (IC50),hESC-CMs; [3],140 nM
"C=C[C@H]1C[N@@]2CC[C@H]1C[C@@H]2[C@@H](O)c1ccnc2ccc(OC)cc12 [Quinidine, quinidine]",concentration that weakened the amplitudes of pulse signals,hiPSC-CMs; hiPSC-CMs,≥ 12.5 µmol/L
same,time after which beating rate spontaneously recovered,"hiPSC-CMs; hiPSC-CMs, 3.13 μmol/L",1 h
same,beating rate,"hiPSC-CMs; hiPSC-CMs, 3.13 μmol/L, 0.5 h after administration",markedly reduced
same,time after which amplitude recovered,"hiPSC-CMs; hiPSC-CMs, 12.5 μmol/L",2 h
same,amplitude,"hiPSC-CMs; hiPSC-CMs, 12.5 μmol/L, 0.5 h and 1 h post administration",substantially reduced
same,self-recovery of automaticity within the observation period,"hiPSC-CMs; hiPSC-CMs, 50 and 100 μmol/L",without self-recovery
same,time after administration at which cellular automaticity ceased,"hiPSC-CMs; hiPSC-CMs, 50 and 100 μmol/L",0.5 h
same,"CI (concentration at which cell index is decreased, ↓)",hiPSC-CMs; hiPSC-CMs,100↓ μmol•L^-1
same,effect on CI,hiPSC-CMs; [1],reduced
same,IC50/EC50 (IC50),hiPSC-CMs; [2],13970 nM
same,time at which spontaneous beating recovered,hESC-CMs; 12.5 μmol/L,6 h
same,time at which spontaneous beating recovered,hESC-CMs; 50 μmol/L,24 h
same,self-recovery after abolished cellular automaticity,hESC-CMs; 100 μmol/L,without observing self-recovery
same,effect on CI,"hESC-CMs; 100 μmol/L, when perfusion was initiated",significant temporary decrease
same,time post administration at which spontaneous beating ceased,hESC-CMs; 12.5 and 50 μmol/L,0.5 h
same,"CI (concentration at which cell index is decreased, ↓)",hESC-CMs,100↓ μmol•L^-1
same,concentration that weakened the pulse signals,hESC-CMs; concentration-dependent,≥ 3.13 µmol/L
same,IC50/EC50 (IC50),hESC-CMs; [3],2180 nM
Cc1cccc(CCN2CCC(C(=O)c3ccc(NS(C)(=O)=O)cc3)CC2)n1 [E-4031],CI amplitude,"hiPSC-CMs; hiPSC-CMs, 30 nmol/L, 18 h culture, tended to recover at 24 h",Reduction
same,time at which spontaneous beating ceased,"hiPSC-CMs; hiPSC-CMs, 100 nmol/L",12 h
same,spontaneous beating rate,"hiPSC-CMs; hiPSC-CMs, 100 nmol/L, 6 h after administration",markedly reduced
same,time post administration at which spontaneous activity was abolished,"hiPSC-CMs; hiPSC-CMs, 300 nmol/L",2 h
same,spontaneous beating rate,"hiPSC-CMs; hiPSC-CMs, 300 nmol/L, 1 h after administration",significantly reduced
same,time at which cells recovered automaticity,hESC-CMs; 10 nmol/L,24 h
same,time post administration at which spontaneous beating ceased,hESC-CMs; 300 nmol/L,0.5 h
same,time of temporary recovery of spontaneous beating activity,"hESC-CMs; 300 nmol/L, one recording",18 h
same,time post administration at which spontaneous activity ceased,"hESC-CMs; 10, 30 and 100 nmol/L",6 h
same,spontaneous beating rate,"hESC-CMs; all concentrations (10, 30, 100, 300 nmol/L), upon immediate administration",Reduction
"CC(C)NCC(O)c1ccc(O)c(O)c1 (stereo not drawn) [Isoprenaline, isoprenaline]",amplitude,"hiPSC-CMs; hPSC-CMs, 0.1, 1 and 10 μmol/L",increased
same,time at which beating rate recovered,"hiPSC-CMs; hiPSC-CMs, 0.1, 1 and 10 μmol/L",24 h
same,beating rate,"hiPSC-CMs; hiPSC-CMs, 0.1, 1 and 10 μmol/L, after 0.5 h of administration",significantly increased
same,"CI (concentration at which cell index is decreased, ↓)",hiPSC-CMs; hiPSC-CMs,1↓ μmol•L^-1
same,effect on CI,hiPSC-CMs; [1],decrease
same,IC50/EC50 (EC50),hiPSC-CMs; [2],30 nM
same,time after which beating rate recovered,hESC-CMs; 0.01 μmol/L,12 h
same,spontaneous beating rate,"hESC-CMs; 0.01 μmol/L, 0.5 h post injection",increased
same,time at which automaticity recovered,"hESC-CMs; 0.1, 1 and 10 μmol/L",24 h
same,cellular automaticity,"hESC-CMs; 0.1, 1 and 10 μmol/L, 0.5 h post injection",significantly increased
same,"CI (concentration at which cell index is decreased, ↓)",hESC-CMs,0.1↓ μmol•L^-1
same,"CI (concentration at which cell index is decreased, ↓)",hESC-CMs; listed as isoprenaline,≥ 0.1 µmol/L
same,IC50/EC50 (EC50),hESC-CMs; [3],40 nM
